Read-outs that look alike come from different tables or passages of the source. Values belong to the compound of their own block, whether it stands above or below them.
Experiments:
A375 melanoma cells = assay: SRB cytotoxicity assay, A375; assay type: cell-based; conditions: Homo sapiens, read-out: IC50 A375
Experimental: (§1) All of the compounds were dissolved in dimethyl sulfoxide (DMSO) to achieve a 20 mM stock solution. Cells were seeded in cell culture flasks 24 h before treatment. The treatment was performed for 24 h.
(§2) The cytotoxicity of the drugs was determined in 2D tumor models using sulforhodamine B (SRB) assays. Treatment started 24 h after seeding the tumor cells in 96-well plates as previously described.

[1] = tested on: MCF-7 breast cancer cells; assay: SRB cytotoxicity assay, MCF-7; assay type: cell-based; conditions: Homo sapiens, read-out: IC50 MCF-7
Experimental: as §1, §2

[2] = tested on: A2780 ovarian cancer cells; assay: SRB cytotoxicity assay, A2780; assay type: cell-based; conditions: Homo sapiens, read-out: IC50 A2780
Experimental: as §1, §2

MDA-MB-231 spheroids = assay: Spheroid cytotoxicity assay (luciferase), MDA-MB-231; assay type: cell-based, human; conditions: read-out: IC50 MDA-MB-231 spheroids
Experimental: (§3) To determine cytotoxicity in the 3D tumor models, spheroid cytotoxicity assays were performed as previously described. […] For generation of single tumor spheroids, tumor cells resuspended in culture medium were seeded into 96-well plates, which were coated before with 0.7% agarose (SeaKem® GTG™ Agarose, Lonza, Basel, Switzerland). After the formation of spheroids (48 h), they were treated with serial dilutions of compounds. Measurements of luciferase activity were performed on day 7, after supplementation with D-luciferin (Perkin Elmer, Rodgau, Germany), on a Tecan Spark microplate reader (Tecan, Männedorf, Switzerland). Generation of dose-response curves and calculation of IC50 values including standard deviations were accomplished using GraphPad Prism8.
(§4) Since the tumor cells stably express luciferase, analysis of spheroid growth and response to therapy is accomplished by measurement of bioluminescent signal intensity.

Hs578T spheroids = assay: Spheroid cytotoxicity assay (luciferase), Hs578T; assay type: cell-based, human; conditions: for IC50: read-out: IC50 Hs578T spheroids
Experimental: as §3, §4

[3] = biological target: recombinant human carbonic anhydrase IX (Homo sapiens, UniProt Q16790); assay: hCA IX esterase assay with p-nitrophenyl acetate
Experimental: In this measurement, the enzymatically catalyzed hydrolysis of p-nitrophenyl acetate to p-nitrophenol was investigated. […] This was followed by measurement of the v-S-characteristics with inhibitor. […] For each run, 2 experimental series (biological replicate) were prepared simultaneously and measured for 10 min at a measurement interval of 8 s, also as a two-fold determination (technical replicate). […] The resulting reaction velocities, calculated from a calibration curve with p-nitrophenole under the same conditions, were plotted against the substrate concentration. The kinetic evaluation for competitive inhibition was then performed with the program GraphPad Prism.

MCF-7 cells [4] = assay: Annexin V / propidium iodide assay, MCF-7; assay type: cell-based, human; conditions: double the IC50 concentration
Experimental: The Annexin V assays were performed as previously described.
Compounds 3, 5, and 9 were used to study cell death mechanisms and cell cycle analysis. A feature that can be used as it is only characteristic of apoptotic but not necrotic cells is Annexin V staining. During apoptosis, in addition to cell shrinkage, chromatin condensation, and the formation of apoptotic bodies, phosphatidylserine, which is originally inside the membrane, is translocated to the outside. There is a rapid change in phospholipid symmetry in the cell membrane, a process occurring so rapidly that the barrier function of the cell membrane is initially still present. The cellular protein Annexin V can bind to the displaced phosphatidylserine in the presence of calcium. To test for the presence of the cell membrane barrier, the non-membrane-permeable dye propidium iodide was added, which intercalates into the DNA. The flow cytometric data were divided into four areas (live cells, early and late apoptotic cells, and necrotic cells). Untreated cells were used as controls. The results are depicted in Figure 3. […] Even after 48 h, no significant difference between compound 3 and 5 was detected (55–60% live cells, 8% early apoptotic cells, 28–36% late apoptotic cells, 0.5–3% necrotic cells). […] Since both compounds are sulfonamides of betulin, the similar results are not surprising.

MCF-7 cells [5] = assay: Cell cycle analysis, MCF-7; assay type: cell-based, human; conditions: MCF-7, 72 h, double the IC50 concentration
Experimental: Cell cycle analyses were performed as previously described.
Changes in the genetic material and the resulting mutations, which can affect the formation of tumors, usually occur during the proliferation process in the cell. A human cell passes through all four phases of this cell cycle within 20 h, with the set of its chromosomes varying between single and double. During apoptosis, fragmentation of DNA occurs along with an associated decrease in chromosome content. Fixation of cells with ethanol leads to permeabilization of the cell membrane and thus to loss of smaller DNA fragments, so that apoptotic cells contain less than the single set of chromosomes detected by a SubG1 peak. Given the different amounts of DNA in the cells and the proportional binding of propidium iodide to the DNA, the different fluorescence intensities can be used to infer the distribution of cells in the respective phases of the cell cycle.
The MCF-7 breast cancer cell line was used in the experiments. An untreated sample was also included in the cell cycle analysis as a control. The results are depicted in Figure 4.

[6] = tested on: tumor cell lines (2D and 3D tumor models); assay: Cytotoxicity summarised across tumor models; assay type: cell-based; conditions: Homo sapiens, read-out: cytotoxicity range in 2D and 3D tumor models
Experimental: as §2
To determine cytotoxicity in the 3D tumor models, spheroid cytotoxicity assays were performed as previously described. The luciferase-expressing, breast cancer cell lines MDA-MB-231 and Hs578T and derived spheroids were cultivated in RPMI medium (Sigma-Aldrich, Taufkirchen, Germany) containing 10% fetal bovine serum (BioWest, Nuaillé, France) and […] penicillin/streptomycin (Sigma-Aldrich) at 37 °C/5% CO2 in a humid atmosphere. For generation of single tumor spheroids, tumor cells resuspended in culture medium were seeded into 96-well plates, which were coated before with 0.7% agarose (SeaKem® GTG™ Agarose, Lonza, Basel, Switzerland). After the formation of spheroids (48 h), they were treated with serial dilutions of compounds. Measurements of luciferase activity were performed on day 7, after supplementation with D-luciferin (Perkin Elmer, Rodgau, Germany), on a Tecan Spark microplate reader (Tecan, Männedorf, Switzerland). Generation of dose-response curves and calculation of IC50 values including standard deviations were accomplished using GraphPad Prism8.

[7] = A-375, SRB assay, 96 h incubation, mean ± SD
[8] = MCF7, SRB assay, 96 h incubation, mean ± SD
[9] = A2780, SRB assay, 96 h incubation, mean ± SD
[10] = Homo sapiens, MDA-MB-231, 168 h, 7 days of treatment, 3 independent experiments
[11] = Homo sapiens, Hs-578T, 168 h, 7 days of treatment, 3 independent experiments
[12] = 7 days of treatment, 3 independent experiments

Ki [3]: 146 nM
SMILES: NS(=O)(=O)c1nnc(NC(=O)CCC(=O)NCCOCCO)s1 [Compound 8, N-[5-(Aminosulfonyl)-1,3,4-thiadiazol-2-yl]-N’-[2-(2-hydroxyethoxy)-ethyl]-succinamide]
IC50 (A375 melanoma cells; [7]): > 100 µM
IC50 [1, 8]: > 100 µM
IC50 [2, 9]: > 100 µM
IC50 (MDA-MB-231 spheroids; [10]): > 100 µM
IC50 (Hs578T spheroids; [11]): > 100 µM

SMILES: C=C(C)C1CCC2(COC(=O)CCC(=O)Nc3nnc(S(N)(=O)=O)s3)CCC3(C)C(CCC4C5(C)CCC(OC(C)=O)C(C)(C)C5CCC43C)C12 (stereo not drawn) [Compound 9, (3β)-3-(Acetyloxy)-lup-20(29)-en-28-yl-4-{[5-(aminosulfonyl)-1,3,4-thiadiazol-2-yl]-amino}-4-oxobutanoate]
IC50 (A375 melanoma cells; A-375, 96 h): 7.2 ± 0.6 µM
IC50 ([1]; MCF7, 96 h): 6.2 ± 0.2 µM
IC50 ([2]; A2780, 96 h): 8.7 ± 2 µM
IC50 (MDA-MB-231 spheroids; Homo sapiens, MDA-MB-231, 168 h): 8.1 ± 1.4 µM
IC50 (Hs578T spheroids; Homo sapiens, Hs-578T, 168 h): 28.4 ± 0.3 µM
resistance of Hs578T spheroids versus MDA-MB-231 spheroids (Hs578T spheroids; difference of spheroid IC50 values): only about three-fold differences
effect on cell survival compared to untreated control (MCF-7 cells [4]; MCF-7, 24 h): no difference
effect on cell viability (Annexin V) (MCF-7 cells [4]; MCF-7, 72 h): comparatively smaller decrease in cell viability
cells in SubG1 phase (MCF-7 cells [5]): 6.5%
IC50 [6]: 6.4 to 30.1 µM
Ki [3]: 1250 ± 250 nM
Ki relative to the unconjugated inhibitors ([3]; higher Ki than unconjugated inhibitors): approximately 10 fold

SMILES: C=C(C)C1CCC2(C(=O)NCCOCCO)CCC3(C)C(CCC4C5(C)CCC(OC(C)=O)C(C)(C)C5CCC43C)C12 (stereo not drawn) [Compound 10]
IC50 (A375 melanoma cells; [7]): 4.3 ± 0.2 µM
IC50 [1, 8]: 5.9 ± 0.2 µM
IC50 [2, 9]: 9.5 ± 0.9 µM
melting point: 205 °C

SMILES: C=C(C)C1CCC2(C(=O)NCCOCCOC(=O)CCC(=O)O)CCC3(C)C(CCC4C5(C)CCC(OC(C)=O)C(C)(C)C5CCC43C)C12 (stereo not drawn) [Compound 11]
IC50 (A375 melanoma cells; [7]): 10.5 ± 0.6 µM
IC50 [1, 8]: 7.3 ± 0.4 µM
IC50 [2, 9]: 12.3 ± 1.5 µM
melting point: 78 to 82 °C

SMILES: C=C(C)C1CCC2(C(=O)NCCOCCOC(=O)CCC(=O)Nc3nnc(S(N)(=O)=O)s3)CCC3(C)C(CCC4C5(C)CCC(OC(C)=O)C(C)(C)C5CCC43C)C12 (stereo not drawn) [Compound 12]
IC50 (A375 melanoma cells; [7]): > 100 µM
IC50 [1, 8]: > 100 µM
IC50 [2, 9]: 35.1 ± 3.4 µM
IC50 (MDA-MB-231 spheroids; [10]): > 100 µM
IC50 (Hs578T spheroids; [11]): > 100 µM
melting point: 92 to 94 °C
reduction of hCA IX activity ([3]; 10 µM of the compound, p-nitrophenyl acetate): 40%
remaining activity at 10 µM ([3]; read-out: residual activity (r.a.) of hCA IX): 60%

SMILES: NS(=O)(=O)c1ccc(NC(=O)Nc2ccc(F)cc2)cc1 [Compound U-104, reference compound]
IC50 (MDA-MB-231 spheroids; [12]): 33.5 ± 7.6 µM
IC50 (Hs578T spheroids; [12]): 83.9 ± 12.4 µM

Reference: paper PMC10974084, “Combination of Betulinic Acid Fragments and Carbonic Anhydrase Inhibitors—A New Drug Targeting Approach” (Pharmaceutics, 2024)
